Data on 2 molecules can be found in paper PMC12624794, “Mechanism of inhibition of acid-mediated transthyretin aggregation by designed peptides” (The Journal of Biological Chemistry, 2025).

The subject of assay [1] is TTR tetramer. The conditions noted are these: cited from earlier work. The source says: (§1) However, the efficacy of tafamidis is reduced for patients with TTR amyloidosis diagnosed at a later stage, when severe organ damage caused by TTR aggregates cannot be reversed ([12]).
The subject of assay [2] is patients with TTR amyloidosis. The conditions noted are these: TTR amyloidosis diagnosed at a later stage; cited from earlier work.
From the text: as §1

The test system of assay [3] is seeded TTR aggregation. Conditions: extracted amyloidogenic fibrils from patients as seeds, in vitro; cited from earlier work.
Assay [4] addresses T1, TTR^F (C10S-trifluoroacetyl-S85C TTR) (Homo sapiens, UniProt P02766, C30S/S105C).
T1 construct: made in house
Put plainly: Real-time 19F-NMR aggregation kinetics at 310 K, pH 4.4 (three-state model). It counts as biochemical. The conditions noted are these: 1 μM peptide; pH 4.4, 310 K. The method, then:
At acidic pH, tetramer dissociation is favored, the misfolding of the monomeric intermediate is facilitated, and the downhill aggregation is accelerated ([1]). We used a previously reported ^19F-labeled TTR construct, C10S-trifluoroacetyl-S85C (denoted as TTR^F), to quantify TTR aggregation kinetics using real-time ^19F-NMR. […] To quantify how the presence of peptides alters TTR aggregation kinetics, we added 1 μM of each TabH2 and TabF2 as well as 1 μM ffTAD1 to 2.5 μM TTR^F (tetramer concentration) at pH 4.4 and 310 K and monitored time-dependent population kinetics for tetramer, monomer, and NMR-invisible aggregates (Fig. 3, A and B). […]
To gain kinetic insights into the aggregation pathway, we fit the time-dependent aggregation data of TTR^F using a previously reported three-state kinetic model, tetramer ↔ monomer ↔ aggregate ([18]), where tetramer and monomer are NMR-visible, and aggregates are NMR-invisible. […] Using this model, fits of the time-dependent population changes determined from peak areas yield four first-order apparent rates. […]
^19F-NMR spectra were acquired using Bruker Avance 600 or Avance 700 MHz spectrometers as previously described ([18]). […] Weighted average chemical shift perturbations (CSPs) for backbone amides were calculated using (Δδ^1H)^2+(Δδ^15N/5)^2 , where Δ δ means chemical shift differences for either ^1H or ^15N with and without peptides.

With `O=C(O)c1ccc2nc(-c3cc(Cl)cc(Cl)c3)oc2c1` [Tafamidis], the “binding to TTR tetramer” value in assay [1] is reported as “binds to the central cavity of the TTR tetramer”. Moreover, the “effect on tetramer dissociation” value in assay [1] (stabilization of the tetramer) is “suppresses dissociation to monomers”. Further, the “efficacy in late-diagnosed patients” value in assay [2] is given as “reduced”. Besides, in assay [3], the “inhibition of seeded TTR aggregation” value is “does not effectively inhibit seeded TTR aggregation”.

For the molecule `CC(C)[C@H](NC(=O)[C@H](C)NC(=O)[C@H](Cc1ccc(O)cc1)NC(=O)[C@H](CO)NC(=O)[C@@H](NC(=O)[C@@H]1CCCN1C(=O)[C@H](CC(N)=O)NC(=O)[C@@H](NC(=O)[C@@H](NC(=O)[C@H](Cc1ccc(O)cc1)NC(=O)[C@H](CO)NC(=O)[C@H](CCCNC(=N)N)NC(=O)[C@H](CCCNC(=N)N)NC(=O)[C@H](CCCNC(=N)N)NC(=O)[C@H](CCCNC(=N)N)NC(=O)[C@H](CCC(=O)O)NC(=O)[C@@H](NC(=O)[C@H](CO)NC(=O)CNC(=O)CNC(=O)CNC(=O)[C@H](CCC(=O)O)NC(=O)[C@@H](NC(=O)[C@H](Cc1ccccc1)NC(=O)[C@H](CCC(=O)O)NC(=O)[C@@H](NC(=O)[C@H](Cc1ccccc1)NC(=O)[C@@H]1CCCN1C(=O)[C@H](Cc1c[nH]cn1)NC(=O)[C@H](C)NC(=O)[C@@H](NC(=O)[C@H](Cc1c[nH]cn1)NC(=O)[C@H](CCCNC(=N)N)NC(=O)[C@H](CCCNC(=N)N)NC(=O)[C@H](CCCNC(=N)N)NC(=O)[C@H](CCCNC(=N)N)NC(=O)[C@H](Cc1c[nH]cn1)NC(=O)[C@H](Cc1c[nH]cn1)NC(=O)[C@H](Cc1c[nH]cn1)NC(=O)[C@H](Cc1c[nH]cn1)NC(=O)[C@H](Cc1c[nH]cn1)NC(=O)[C@@H](N)Cc1c[nH]cn1)C(C)C)C(C)C)[C@@H](C)O)[C@@H](C)O)C(C)C)[C@@H](C)O)[C@@H](C)O)C(=O)N[C@H](C(=O)O)[C@@H](C)O` [ffTAD1], the “reduction of steady-state population of NMR-invisible aggregates vs TTR^F-only control” value in assay [4] is roughly 8%.
